# Reference: patent US20090313709A1, “Genetically Modified Animal and Use Thereof” (priority 2006, published 2009)
# Experiments:
# [1] = tested on: isolated islets of Langerhans derived from control mice; assay: Insulin secretion from isolated islets of Langerhans of control mice with addition of palmitic acid; format: cell-based, mouse; conditions: 0.5 mM palmitic acid, 11 mM glucose, cultured 1 hour, insulin corrected by DNA amount
# Experimental: (§1) Starting at 8 week-old, transgenic mice of the 47M strain and 23F strain were fed with a low-fat diet (D12450B, 10 kcal % fat, manufactured by Research Diets, Inc.) or a high-fat diet (D12492, 60 kcal % fat, manufactured by Research Diets, Inc.) for 8 weeks. Each mouse at 16 week-old had the duodenal side ligated, and the common bile duct cannulated, and a 1 mg/ml collagenase solution (manufactured by Wako Pure Chemical) was injected into the mouse pancreas. The pancreas receiving the injection was excised, placed in a tube containing the same collagenase solution, and shaken at 37° C. for 20 minutes. Subsequently, the solution was vigorously mixed for 30 seconds, and a Quenching buffer solution (Hanks Balanced Salt Solution comprising 0.001% DNaseI and 25 mM HEPES) containing 10% FBS was added to make a total volume of 20 ml. The solution was transferred to a Petri dish, and washed twice with the Quenching buffer solution, after which islets of Langerhans were recovered using a pipette under a microscopy, and this was used as the test sample. […] Meanwhile, after cultivation, islets of Langerhans were disrupted by sonication using a sonicator (manufactured by M & S Instruments Trading Inc.), the amount of DNA was determined using a Quant-iT™ Picogreen ds DNA Assay kit (manufactured by Molecular Probes), and the amount of insulin secreted was corrected.
# [2] = tested on: isolated islets of Langerhans derived from human GPR40 gene transgenic mice of the 47M strain; assay: Insulin secretion from isolated islets of Langerhans of human GPR40 gene transgenic mice (47M strain) with addition of palmitic acid; format: cell-based; conditions: transgenic mouse 47M strain islets; 0.5 mM palmitic acid, 11 mM glucose, cultured 1 hour; insulin corrected by DNA amount
# Experimental: as §1
compound,measurement,setting,value
CCCCCCCCCCCCCCCC(=O)O [palmitic acid],"amount of insulin secreted, increase compared with the no-addition group",[1],about 1.5 times
same,"amount of insulin secreted, increase compared with the no-addition group",[2],about 6 times
